Test results from PMC10424187, “Structure-Guided Design and Synthesis of a Pyridazinone Series of Trypanosoma cruzi Proteasome Inhibitors” (Journal of Medicinal Chemistry, 2023).
In brackets after ≈: the same amount, converted by molar mass. Several values for one entry are separate records, joined by “and”; a condition that tells them apart may be missing. Equal values may be shown once.

Tests used:
[1] = target: T. cruzi proteasome (Trypanosoma cruzi, UniProt V5BU39+V5C017); assay: T. cruzi proteasome assay (chymotrypsin-like activity, Suc-LLVY-Rho-110-DPro); settings: for Tc Prot Hill Slope / Tc Prot Max Response (%): individual replicate; for Emax: read-out: Tc Prot Max Response (%), individual replicate
T. cruzi proteasome, sequence (V5BU39 entry or part of it): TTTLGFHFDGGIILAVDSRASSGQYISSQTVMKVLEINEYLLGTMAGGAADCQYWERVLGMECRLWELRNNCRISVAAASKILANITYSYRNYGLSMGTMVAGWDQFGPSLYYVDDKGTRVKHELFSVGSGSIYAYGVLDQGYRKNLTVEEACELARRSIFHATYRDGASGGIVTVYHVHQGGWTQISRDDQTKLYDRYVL
T. cruzi proteasome, sequence (V5C017 entry or part of it): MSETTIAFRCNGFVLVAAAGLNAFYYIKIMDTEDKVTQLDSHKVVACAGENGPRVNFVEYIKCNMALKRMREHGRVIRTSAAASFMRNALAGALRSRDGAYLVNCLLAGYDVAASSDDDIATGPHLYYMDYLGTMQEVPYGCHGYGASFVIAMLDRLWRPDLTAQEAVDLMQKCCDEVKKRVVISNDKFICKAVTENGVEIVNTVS
Description: T. cruzi and human proteasome assays
(§2) The T. cruzi proteasome was partially purified as described in the above reference and Human
(§3) 20S proteasome was purchased from Boston Biochem (now R&D Systems, catalogue number
(§4) a Tecan Fluent to titrate over 11 points in Labcyte Echo-compatible Greiner Bio-One 384 well
(§5) polypropylene microplates. Subsequently, 100 nl of test compound titrations were transferred
(§6) to black Greiner Bio-One low volume 384 well microplates using a Labcyte Echo acoustic
(§7) 50 mM HEPES pH 7.5, 150 mM sodium chloride, 5% Glycerol, 1 mM dithiothreitol, 1 mM
(§8) CHAPS in deionised, filtered water (all chemicals purchased from Sigma Aldrich). Human 20S
(§9) These enzyme solutions were prepared immediately prior to assay initiation and stored at 4 °C
(§10) To monitor the Chymotrypsin-like activity of the T. cruzi and Human 20S proteasome proteins
(§11) a self-quenched, Rhodamine 110-labelled peptide with the sequence Suc-LLVY-Rho-110-
(§12) DPro was used (prepared by Cambridge Research Biochemicals. Suc is succinyl, while DPro
(§13) refers to ᴅ-proline). The peptide was initially prepared from solid as a 10 mM solution in 100%
(§14) DMSO and stored at -20 °C. Prior to use in the assay, an aliquot was thawed at room
(§15) to twofold Km. For use with the Human 20S proteasome, the Suc-LLVY-Rho-110-DPro
(§16) peptide was diluted in assay buffer to a concentration equivalent to twofold Km, which for this
(§17) enzyme was 2 μM. The peptide solutions were protected from light and stored at 4 °C before
(§18) A Multidrop Micro (Thermo Fisher), using a low volume dispense cassette, was used to add
(§19) the assay solutions to the test compounds in the low volume 384-well microplates. Prior to
(§20) addition of proteasome solution, 5 μl of assay buffer was added to one column (containing 100
(§21) nl, 100% DMSO) to act as no enzyme control to mimic full inhibition. Subsequently, 5 μl of
(§22) proteasome solution (either T. cruzi or Human 20S) was added to all wells on the test
(§23) microplate apart from the column containing 5 μl assay buffer. The microplate was then spun
(§24) using a suitable bench top centrifuge for 1 minute at 1000 rpm, before incubation at room
(§25) Following the initial incubation, 5 μl of substrate solution was then added to all wells on the
(§26) test microplate using a Multidrop Micro equipped with a discrete low volume dispense cassette.
(§27) The test microplates were then spun for 10 seconds at 1000 rpm before being rapidly moved to
(§28) a multi-mode microplate reader, capable of monitoring fluorescence intensity. The microplate
(§29) reader used for these studies was a Tecan M1000 Pro, equipped with quad monochromators.
(§30) 530 ± 5 nm. A series of fluorescence intensity measurements were taken every 30 seconds for
(§31) Subsequently, the fluorescence intensity measurements (relative fluorescence units, RFU) were
(§32) fit to a simple linear regression model (y = A + Bx, where y refers to the fluorescence intensity
(§33) and x refers to the time in seconds) to determine the initial rate of reaction. The initial rate for
(§34) every compound concentration tested was then fit a 4-parameter logistic model: y = (A + (B -
(§35) A)) / (1 + (x / C)D), where y refers to the assay response, x refers to the inhibitor concentration,
(§36) A and B are the range values (minimum and maximum, respectively), C is the IC50 value and
(§37) D is the slope. Potency values were then reported as pIC50, which is the negative log of the
(§38) IC50 (on a molar scale). Data analysis was automated and carried out using the ActivityBase

[2] = target: Human 20S proteasome (Homo sapiens, UniProt P28074+P49721); assay: human proteasome assay (chymotrypsin-like activity, Suc-LLVY-Rho-110-DPro); settings: for Emax: read-out: Hs Prot Max Response (%), individual replicate
Description: T. cruzi and human proteasome assays
as §2, §3, §4, §5, §6, §7, §8, §9, §10, §11, §12, §13, §14, §15, §16, §17, §18, §19, §20, §21, §22, §23, §24, §25, §26, §27, §28, §29, §30, §31, §32, §33, §34, §35, §36, §37, §38

[3] = Mouse microsomal intrinsic clearance; assay type: in vitro ADME; settings: mouse liver microsomes, scaling 52.5 mg microsomal protein/g liver
Description: Mouse microsomal intrinsic clearance.
This assay was conducted as previously described:
J.; Reid, I. H.; Hill, A. P.;
(§1) were prepared by adding a volume (5 µL) of the 10 mM solution to a volume (195 µL) of […]

[4] = test system: intracellular T. cruzi X10/7 A1 amastigotes
[5] = ChromLogD; assay type: physicochemical; settings: pH 7.4; read-out: Chrom LogDpH7.4
Description: Chrom LogD was measured as previously described:
solubility and hydrophobicity. Drug Discov. Today 2010, 15, 648−655. […]

[6] = test system: host VERO cells
[7] = Kinetic aqueous solubility (UHPLC, PBS pH 7.4); assay type: physicochemical; settings: phosphate buffered saline, UHPLC UV/MS
Description: This assay was conducted as previously described: […]
as §1
format). Samples were then drawn through the filter using vacuum. The filtrate from the above […]
formic acid gradient elution. The UHPLC parameters are shown below:
Gradient program: Initial: 98% A, 2% B
Re-equilibration time: 0.6 min
Autosampler temperature: 25°C
Detector wavelength: 254 nm

[8] = test system: T. cruzi; assay: T. cruzi in vitro washout assay; assay type: cell-based, Trypanosoma cruzi; settings: 16-day treatment at 25-fold EC50, two replicates each
Description: T. cruzi in vitro washout assay
This assay was run as previously reported:
Marco M.; Miles T.J.; Naylor C.; Osuna-Cabello M.; Paterson C.; Read K.D.; Pinto E.G.; Riley
J.; Scullion P.; Shishikura Y.; Simeons F.; Stojanovski L.; Svensen N.; Thomas J.; Wyatt P.G.;
disubstituted piperazines for the treatment of Chagas disease. […]

[9] = test system: T. cruzi; assay: Chronic mouse efficacy model of Chagas disease; assay type: in vivo, Balb/c mice; settings: 50 mg/kg b.i.d for 20 days
Description: All regulated procedures on living animals were carried out under the authority of a project license issued by the Home Office under the Animals (Scientific Procedures) Act 1986, as amended in 2012 (and in compliance with EU Directive EU/2010/63). Infected animals had access to food and water ad libitum and were housed under a 12-hour light/dark photoperiod.
Animals used in these experiments were female NMRI and Balb/c mice (Harlan, UK). […]
In vivo Mouse Efficacy Studies.
The T. cruzi chronic efficacy study was run in Balb/c mice as previously described:
M.D. Lewis, A. Fortes Francisco, M.C. Taylor, J.M. Kelly, A new experimental model for assessing drug efficacy against Trypanosoma cruzi infection based on highly sensitive in vivo imaging, J. Biomol. Screen 20 (1) (2015) 36–43

[10] = T. cruzi Prot pIC50, mean of at least three independent replicates
[11] = Tc Prot pIC50, individual replicate
[12] = mean of at least three independent replicates

Structure (SMILES) | IC50 [1, 10] | IC50 [1, 11] | Tc Prot Hill Slope [1] | Tc Prot Max Response (%) [1] | Emax [1] [%] | Hs Prot Max Response (%) ([2]; individual replicate) | Hs Prot pIC50 ([2]; individual replicate) | Hs Prot pIC50 [2, 12] | Mouse CLi [3] [mL/min/g] | EC50 [4] | Emax [4] | chromatographic logD [5] | EC50 [6] [nM] | solubility at 24 h [7] [µM] | Emax [2] [%] | relapses, days post washout [8] | Emax [6] [%] | cure [9]
COc1ccc(Cn2nc(C(=O)Nc3ccc(F)c(C(=O)NC4CC4)c3)ccc2=O)cc1Cl [Compound 14, 1-[(3-Chloro-4-methoxy-phenyl)methyl]-N-[3-(cyclopropylcarbamoyl)-4-fluorophenyl]-6-oxo-pyridazine-3-carboxamide] | < 10 nM and 3.16 nM | 5.01 nM and 2 nM | 0.95 and 0.9 | 86% | 80 | 17% and 49% | < 4 | <4 | 1.6 | 50.1 nM and 39.8 nM and 63.1 nM | 92% and 94% and 90% and 93% | 4.7 | > 50100 | < 1 | – | – | – | –
COc1ccc(Cn2nc(C(=O)Nc3ccc(F)c(C(=O)NC4CC4)c3)ccc2=O)cc1C#N [Compound 16, 1-[(3-Cyano-4-methoxy-phenyl)methyl]-N-[3-(cyclopropylcarbamoyl)-4-fluorophenyl]-6-oxo-pyridazine-3-carboxamide] | 10 nM | 12.6 nM | 1.2 and 1.1 | 62% | 72 | 5% | < 4 | <4 | 0.7 | 158 nM and 200 nM and 126 nM and 100 nM | 91% and 90% and 102% and 87% and 92% | 4 | – | < 1 | 4 | – | – | –
O=C(Nc1ccc(F)c(C(=O)NC2CC2)c1)c1ccc(=O)n(Cc2ccc(Cl)c(F)c2)n1 [Compound 17, 1-[(4-Chloro-3-fluorophenyl)methyl]-N-[3-(cyclopropylcarbamoyl)-4-fluorophenyl]-6-oxo-pyridazine-3-carboxamide] | 25.1 nM | 39.8 nM and 20 nM | 0.9 and 1.0 | 87% and 86% | 80 | 21% and 22% and 27% and 11% | < 4 | <4 | 4.8 | 200 nM | 90% and 93% | 5.1 | > 50100 | 21 (≈ 9.64 µg/mL) | – | – | – | –
COc1ncc(Cn2nc(C(=O)Nc3ccc(F)c(C(=O)NC4CC4)c3)ccc2=O)cc1F [Compound 18, N-(3-(Cyclopropylcarbamoyl)-4-fluorophenyl)-1-((5-fluoro-6-methoxypyridin-3-yl)methyl)-6-oxo-1,6-dihydropyridazine-3-carboxamide] | 2510 nM | 5010 nM and 1580 nM | 1.2 and 1.1 | 80% | 75 | 13% | < 4 | <4 | 3.5 | 50100 nM | 53% and 54% and 55% and 67% and 52% | 5.6 | > 50100 | < 1 | 10 | – | – | –
COc1ccc(Cn2nc(C(=O)Nc3ccc(F)c(C(=O)NCCN4CCOCC4)c3)ccc2=O)cc1 [Compound 21, N-[4-Fluoro-3-(2-morpholinoethylcarbamoyl)phenyl]-1-[(4-methoxyphenyl)methyl]-6-oxo-pyridazine-3-carboxamide] | 126 nM | 126 nM | 1.0 and 0.9 | 72% | 80 | 12% | < 4 | <4 | 3.6 | 1580 nM and 1000 nM | 95% and 94% and 98% and 96% and 92% | 3.7 | > 50100 | 200 (≈ 102 µg/mL) | 9 | – | – | –
CNC(=O)c1cc(NC(=O)c2ccc(=O)n(Cc3ccc(OC)cc3)n2)ccc1F [Compound 26, N-(4-Fluoro-3-(methylcarbamoyl)phenyl)-1-(4-methoxybenzyl)-6-oxo-1,6-dihydropyridazine-3-carboxamide] | – | 63.1 nM and 31.6 nM | 1.0 and 1.1 | 82% | 73 | 21% and 3% and 0% | < 4 | <4 | – | 794 nM and 631 nM and 501 nM and 1000 nM | 92% and 94% and 95% and 87% and 86% and 98% and 90% | – | > 50100 | – | – | 35 days and 42 days | 20 | not curative
